Residues, ends and D or L forms follow the SMILES beside them.
Legend:
M4 melanoma cells [1] = test: Melanoma cell motility in microchemotaxis chambers on coated filters; type: cell-based, mouse; conditions: 10 μg/ml solution
Procedure: In light of the involvement of cell adhesion and spreading in motility, peptide IV-H1 was studied for its ability to directly promote melanoma cell motility. Peptide-mediated M4 melanoma cell motility was examined in 48-well microchemotaxis chambers (Neuroprobe, Bethesda, MD) equipped with 8 μm pore size polyvinylpyrrolidone-free polycarbonate filters by a modification of a procedure described by Herbst et al., supra. Briefly, peptides were diluted in Voller's carbonate buffer and added in triplicate 50 μl aliquots to the lower wells of the chambers. The chambers were assembled with the filters in place and incubated overnight at 37° C. to allow the peptides to adsorb to the lower surfaces of the filters. The filters were then washed and transferred to fresh chambers which contained only media (DME containing 20 mM Hepes, pH 7.4). Cells were then added to the upper wells at 20,000/well in DME/Hepes media and incubated for 6 hr. at 37° C. in a humidified CO2 chamber. Filters were then washed, fixed and stained, and the number of cells which had migrated through the filters was quantitated using an Optomax Image Analysis System as described in Herbst et al., supra. Each experiment was repeated a minimum of three times. […] This compares with melanoma cell motility of 10-fold background levels in response to a 10 μg/ml solution of intact type IV collagen (FIG. 4b).

[2] = system: Squamous carcinoma cell line (SCC9); test: Cell adhesion and spreading on coated peptide IV-H1 or type IV collagen; type: cell-based, human; conditions: surface coated at 100 μg/ml
Procedure: (§1) To characterize peptide IV-H1, the interaction of the peptide with other cell lines was investigated. These cell lines include the highly metastatic human melanoma cell line A375 M (also provided by Dr. Fidler), which was maintained in MEM with added vitamins and 10% FBS; and the fibrosarcoma cell line UV2237 MM, which was maintained in DME with 10% FBS. […]
(§2) Immulon 1 microtiter plates were prepared by drying down 100 μl/well of IV-H1 peptide which had been diluted to various concentrations (1-500 μg/ml) in Voller's carbonate buffer. The ability of the IV-H1 peptide to bind the plates was determined using radioiodinated peptides (described previously) in order to be certain that any differences in cell adhesion (or spreading) were not due to differential binding to surfaces. […] Adhesion was quantitated after washing to remove nonadherent and weakly adherent cells, by solubilizing the cells with 150 μl/well of 0.5N NaOH containing 1% SDS. Bound radioactivity was quantitated in a Beckman LS 3801 liquid scintillation counter. […] Each experiment was repeated a minimum of three times, and within a given experiment, each experimental point was determined in triplicate. […]

A375 M melanoma = test: as above; type: cell-based, human; conditions: surface coated at 100 μg/ml
Procedure: as §1, §2

K 1735 M4 melanoma cells = test: Melanoma cell adhesion and spreading on peptide-coated Immulon 1 wells; type: cell-based, mouse; conditions: K1735 M4 melanoma; surface coated at 100 μg/ml; average of three experiments
Procedure: Subconfluent cultures of M4 melanoma cells were radiolabeled overnight with 2 μCi/ml ^3 H-thymidine. […] The melanoma cells were then washed and resuspended to a final concentration of 3-4×10^4 cells/ml in DME supplemented with 20 mM Hepes and 10 mg/ml BSA. The cells remained viable (>95%) after this procedure, based upon exclusion of trypan blue dye.
(§3) Immulon 1 microtiter plates were prepared by drying down 100 μl/well of IV-H1 peptide which had been diluted to various concentrations (1-500 μg/ml) in Voller's carbonate buffer. The ability of the IV-H1 peptide to bind the plates was determined using radioiodinated peptides (described previously) in order to be certain that any differences in cell adhesion (or spreading) were not due to differential binding to surfaces. Nonspecific cell adhesion to sites on the plastic was blocked by the use of a 10 mg/ml solution of BSA in Voller's carbonate buffer at 37° C. for 1 hr. […] Adhesion was quantitated after washing to remove nonadherent and weakly adherent cells, by solubilizing the cells with 150 μl/well of 0.5N NaOH containing 1% SDS. Bound radioactivity was quantitated in a Beckman LS 3801 liquid scintillation counter. […] Each experiment was repeated a minimum of three times, and within a given experiment, each experimental point was determined in triplicate.

UV 2237 fibrosarcoma = test: Cell adhesion and spreading on coated peptide IV-H1 or type IV collagen; type: cell-based, murine; conditions: surface coated at 100 μg/ml
Procedure: as §1, §2

C6 glioma = test: as above; type: cell-based, rat; conditions: surface coated at 100 μg/ml
Text: (§4) To characterize peptide IV-H1, the interaction of the peptide with other cell lines was investigated. These cell lines include the highly metastatic human melanoma cell line A375 M (also provided by Dr. Fidler), which was maintained in MEM with added vitamins and 10% FBS; and the fibrosarcoma cell line UV2237 MM, which was maintained in DME with 10% FBS. Other cell lines studied included: the C6 rat glioma cell line (ATCC, #CCL107), which was maintained in DME plus 10% CS; the SCC9 human squamous carcinoma cell line (ATCC, #CRL1629), which was maintained in a 1:1 solution of DME and HAM F12 containing 10% FBS; the B65 and B104 murine neuroblastoma cell lines which were obtained from Dr. David Schubert at the Salk Institute (Schuber et al., Nature, 249, 224-227 (1974)) and maintained in F12H media with supplements; and bovine aortic endothelial cells, which were isolated and maintained as described by Herbst et al., J. Cell Biol., 106, 1365-1373 (1988), the disclosure of which is incorporated by reference herein.
as §3, with “triplicate. […]” for “triplicate.”

B104 neuroblastoma = test: as above; type: cell-based, rat; conditions: surface coated at 100 μg/ml
Text: as §4
as §3, with “triplicate. […]” for “triplicate.”

B65 neuroblastoma = test: as above; type: cell-based, rat; conditions: surface coated at 100 μg/ml
Text: as §4
as §3, with “triplicate. […]” for “triplicate.”

[3] = system: Bovine aortic endothelial cells; test: as above; type: cell-based; conditions: surface coated at 100 μg/ml
Procedure: as §1, §2

M4 melanoma cells [4] = conditions: 50 μg/ml
Procedure: The collagen coating concentration (5 μg/ml) was chosen based on the concentration which yielded half-maximal levels of cellular motility. The inhibitory effect of the peptides on cell motility was determined by preincubating the cells with increasing concentrations of the peptides for 20 min. prior to the assay to allow for binding to cell surface receptors. Cells in the continued presence of peptides were then added to the upper wells of chambers containing the protein-coated filters.

Molecule	melanoma cell motility (M4 melanoma cells [1])	% AD (percent of input cells which adhered) [2] [%]	% AD (percent of input cells which adhered) (A375 M melanoma) [%]	% AD (percent of input cells which adhered) (K 1735 M4 melanoma cells) [%]	% AD (percent of input cells which adhered) (UV 2237 fibrosarcoma) [%]	% AD (percent of input cells which adhered) (C6 glioma) [%]	% AD (percent of input cells which adhered) (B104 neuroblastoma) [%]	% AD (percent of input cells which adhered) (B65 neuroblastoma) [%]	% AD (percent of input cells which adhered) [3] [%]	maximal inhibition of type IV collagen-mediated cell motility (M4 melanoma cells [4]) [%]
Type IV Collagen: Type IV collagen extracted from the Englebreth Holm Swarm sarcoma grown in lathyritic mice	10 -fold background levels	39.6	50.3	61.9	7.9	100.0	18.6	7.7	52.7	–
CC(C)[C@H](NC(=O)CN)C(=O)N[C@@H](CCCCN)C(=O)NCC(=O)N[C@@H](CC(=O)O)C(=O)N[C@@H](CCCCN)C(=O)NCC(=O)N[C@@H](CC(N)=O)C(=O)N1CCC[C@H]1C(=O)NCC(=O)N[C@@H](Cc1c[nH]c2ccccc12)C(=O)N1CCC[C@H]1C(=O)NCC(=O)N[C@@H](C)C(=O)N1CCC[C@H]1C(=O)O [peptide IV-H1, GVKGDKGNPGWPGAP] (H-GVKGDKGNPGWPGAP-OH)	–	–	–	–	–	–	–	–	–	80
